Laboratory results published in patent US10028957B2, “Depot formulations” (DURECT CORPORATION, priority 2007, dated 2018).

Test: Solvent capacity experiments (solvent added until single phase persists one week)
Format: physicochemical
Conditions: fixed PLGA/SAIB ratio, room temperature, weight percent of total final weight
[1] = Example 7, PLGA 4700 Da, 65/35, hexanediol initiated
[2] = Example 8, PLGA 6600 Da, 65/35, dodecanol initiated

Structure (SMILES) | amount of solvent needed for a single phase solution that remained single phase for one week [1] [wt %] | amount of solvent needed for a single phase solution that remained single phase for one week [2] [wt %]
OCc1ccccc1 [BA, benzyl alcohol] | 26.44 | 19.70
C[S+](C)[O-] [DMSO, dimethylsulfoxide] | 42.64 | 31.22
